Source: patent US20140288044A1, “COMPOSITIONS AND THERAPEUTIC USES OF IKK-RELATED KINASE EPSILON AND TANKBINDING KINASE 1 INHIBITORS” (Alzheimer's Institute of America, Inc., priority 2011, published 2014)
Where two headings read alike, the source gives them in different places.

Columns and labels:
IKKε = biological target: T1, IKKε (Homo sapiens, UniProt Q14164); assay: In-vitro IKKε kinase assay (radiolabelled ATP, filterplate); type: biochemical
T1 construct: His-tag (in-house Sf9 preparation) or GST-tag (purchased Invitrogen preparation); these are alternatives, not both on one protein; host or cells: Sf9 cells
T1 sequence (Q14164 1-716): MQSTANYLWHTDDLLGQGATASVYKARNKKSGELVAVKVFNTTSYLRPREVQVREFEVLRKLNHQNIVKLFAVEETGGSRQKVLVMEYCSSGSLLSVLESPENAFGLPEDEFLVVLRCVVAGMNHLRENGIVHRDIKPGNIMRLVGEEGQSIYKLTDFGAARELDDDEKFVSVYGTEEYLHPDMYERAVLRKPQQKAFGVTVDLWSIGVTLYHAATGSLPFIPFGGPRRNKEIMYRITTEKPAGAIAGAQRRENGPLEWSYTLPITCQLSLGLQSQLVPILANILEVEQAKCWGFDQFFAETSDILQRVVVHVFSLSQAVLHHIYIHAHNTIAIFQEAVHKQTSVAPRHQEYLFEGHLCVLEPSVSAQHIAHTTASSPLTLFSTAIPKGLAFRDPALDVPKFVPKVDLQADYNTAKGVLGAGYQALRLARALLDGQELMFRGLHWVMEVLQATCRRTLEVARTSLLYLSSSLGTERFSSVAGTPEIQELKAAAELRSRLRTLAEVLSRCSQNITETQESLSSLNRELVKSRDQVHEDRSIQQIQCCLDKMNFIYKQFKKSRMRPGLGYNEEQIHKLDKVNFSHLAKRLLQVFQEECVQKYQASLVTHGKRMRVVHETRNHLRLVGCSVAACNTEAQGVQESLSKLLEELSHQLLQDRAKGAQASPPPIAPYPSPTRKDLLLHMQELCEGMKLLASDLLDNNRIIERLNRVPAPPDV
Procedure, shortened: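 His-tagged IKKε from Sf9 cells or GST-tagged IKKε, with myelin basic protein, casein or dephosphorylated casein as substrate and 32 μM ATP (2× Km) plus [γ^33]ATP. "Normal" assay used 0.1 μg/ml enzyme; "sensitized" used 0.015 μg/ml with dephosphorylated casein only. Stopped after 30–45 min with phosphoric acid; P-81 filter counts normalized to DMSO after background subtraction.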

[1] = tested on: IKKε-mediated phosphorylation of IRF3; assay: ELISA for in-situ phosphorylation of IRF3 (phospho-Ser396) in HEK293T cells cotransfected with IRF3 and IKKε; type: cell-based; conditions: Homo sapiens, HEK-293T, 20 h, HEK293T cells, 20 hours, read-out: IC50, in-situ IKKε-mediated phosphorylation of IRF3
Procedure, shortened: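 HEK293T cells cotransfected with IRF3 and IKKε were treated with compound for 20 h, and lysates were assayed by ELISA for phospho-Ser396 IRF3, normalized to DMSO. Viability was checked in parallel by CellTiter-Glo. For TBK1, cells cotransfected with IRF7 and TBK1 were treated overnight and probed by Western blot for phospho-Ser477/Ser479 IRF7.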

[2] = "sensitized" assay, read-out: IC50, inhibition of the kinase activity of IKKε
[3] = in-vitro IKKε kinase inhibition assays, given as 0.005 μM (5 nM), read-out: IKKε kinase inhibitory activity (IC50 value)
[4] = range given from about 1 μM to about 250 nM

Structure (SMILES)	IC50 (IKKε; [2])	IC50 (IKKε; [3])	IC50 [1]	IC50 [1, 4]
N#Cc1cc(-c2ccnc(Nc3ccc(C(=O)N4CCCC4)nc3)n2)ccc1OC1CCOCC1 [Example Compound 29, 5-(2-{[6-(Pyrrolidin-1-ylcarbonyl)pyridin-3-yl]amino}pyrimidin-4-yl)-2-(tetrahydro-2H-pyran-4-yloxy)benzonitrile]	< 0.005 µM	< 0.005 µM	0.1 to 0.25 µM	
COC1CN(c2cc(Nc3nccc(-c4ccc(OC5CCOCC5)c(C#N)c4)n3)ccn2)C1 [Example Compound 43, 5-(2-{[2-(3-Methoxyazetidin-1-yl)pyridin-4-yl]amino}pyrimidin-4-yl)-2-(tetrahydro-2H-pyran-4-yloxy)benzonitrile]	< 0.005 µM	< 0.005 µM	< 0.1 µM	
N#Cc1cc(-c2ccnc(Nc3ccc(/C=C/CN4CCOCC4)nc3)n2)ccc1OC1CCOCC1 [Example Compound 94, 5-[2-({6-[(1E)-3-(Morpholin-4-yl)prop-1-en-1-yl]pyridin-3-yl}amino)pyrimidin-4-yl]-2-(tetrahydro-2H-pyran-4-yloxy)benzonitrile]		< 0.005 µM	0.1 to 0.25 µM	
CN(C)c1ccc(Nc2nccc(-c3ccc(NC(=O)C4CC4)c(C#N)c3)n2)cn1 [Example Compound 138, N-[2-Cyano-4-(2-{[6-(dimethylamino)pyridin-3-yl]amino}pyrimidin-4-yl)phenyl]cyclopropanecarboxamide]	< 0.005 µM	< 0.005 µM	< 0.1 µM	
N#Cc1cc(-c2ccnc(Nc3ccc(CNC(=O)N4CCOCC4)nc3)n2)ccc1OC1CCOCC1 [Example Compound 229, N-{[5-({4-[3-Cyano-4-(tetrahydro-2H-pyran-4-yloxy)phenyl]pyrimidin-2-yl}amino)pyridin-2-yl]methyl}morpholine-4-carboxamide]	< 0.005 µM		0.1 to 0.25 µM	
CC(c1ccc(Nc2nccc(-c3ccc(OC4CCOCC4)c(C#N)c3)n2)cn1)N1CC(N(C)C)C1 (centres unmarked) [Example Compound 244, 5-{2-[(6-{1-[3-(Dimethylamino)azetidin-1-yl]ethyl}pyridin-3-yl)amino]pyrimidin-4-yl}-2-(tetrahydro-2H-pyran-4-yloxy)benzonitrile]	< 0.005 µM		< 0.1 µM	
COCCNC(=O)c1cncc(Nc2nccc(-c3ccc(OC4CCOCC4)c(C#N)c3)n2)c1 [Example Compound 15, 5-({4-[3-Cyano-4-(tetrahydro-2H-pyran-4-yloxy)phenyl]pyrimidin-2-yl}amino)-N-(2-methoxyethyl)pyridine-3-carboxamide]	< 0.005 µM	< 0.005 µM		0.25 to 1 µM
COC1CN(C(=O)c2ncc(Nc3nccc(-c4ccc(OC5CCOCC5)c(C#N)c4)n3)n2C)C1 [Example Compound 102, 5-[2-({2-[(3-Methoxyazetidin-1-yl)carbonyl]-1-methyl-1H-imidazol-5-yl}amino)pyrimidin-4-yl]-2-(tetrahydro-2H-pyran-4-yloxy)benzonitrile]	< 0.005 µM	< 0.005 µM	0.1 to 0.25 µM	
COC1CN(Cc2cncc(Nc3nccc(-c4ccc(OC5CCOCC5)c(C#N)c4)n3)c2)C1 [Example Compound 23, 5-[2-({5-[(3-Methoxyazetidin-1-yl)methyl]pyridin-3-yl}amino)pyrimidin-4-yl]-2-(tetrahydro-2H-pyran-4-yloxy)benzonitrile]	< 0.005 µM	< 0.005 µM		0.25 to 1 µM
N#Cc1cc(-c2ccnc(Nc3ccc(-c4cn[nH]c4)nc3)n2)ccc1OC1CCOCC1 [Example Compound 78, 5-(2-{[6-(1H-Pyrazol-4-yl)pyridin-3-yl]amino}pyrimidin-4-yl)-2-(tetrahydro-2H-pyran-4-yloxy)benzonitrile]		< 0.005 µM	< 0.1 µM	
